Data published in PMC12064818, “A general assay platform to study protein pharmacology using ligand-dependent structural dynamics” (Nature Communications, 2025).
Several values for one entry are separate records, joined by “and”; a condition that tells them apart may be missing. Equal values may be shown once. Read-outs that look alike come from different tables or passages of the source.

How the values were obtained:
[1] = molecular target: T1, E. coli Lig-N-HiBiT (DNA ligase) (Escherichia coli, UniProt P15042); conditions: for SDR assay data: 0.5 nM E. coli Lig-N-HiBiT; for SDR assay data / SDR response: Log [ATP]; for SDR response: replicates
[2] = molecular target: T1, E. coli Lig-N-HiBiT (DNA ligase); assay: biochemical
iPGM = conditions: surface plasmon resonance kinetics; cited from earlier work
C. elegans iPGM-C-HiBiT = C. elegans iPGM-C-HiBiT (Caenorhabditis elegans, UniProt G5EFZ1); assay: C. elegans iPGM fluorescent polarization competition-binding assay (Ce-2d-FL probe); design: cDNA, containing Phe2-Ile539 and the 6xHis tag; His6 (C); made in house; host or cells: E. coli
Description: All reagents were prepared on ice, protected from light. […] Compounds and controls were added with a pintool to each plate as described in Supplementary Data 8. Assay plates were incubated for 20 min at ambient temperature. […] Microtiter plates were allowed to reach equilibrium (30 min incubation at ambient temperature) while protected from light. Fluorescence polarization was measured with the same reader settings as above. Data were row-wise normalized to no enzyme control as -100% activity and enzyme + DMSO vehicle control as neutral control. See Supplementary Table 7 for additional details.
Supplementary Table 7. Protocol for Co- factor independent phosphoglycerate mutase (iPGM) fluorescent polarization competition-biding assay
Supplementary Table 7: Protocol for C. elegans co-factor independent phosphoglycerate m utase (iPGM) fluorescent polarization com petition-binding assay
Sequence Param eter Value Description
No enzym e control (colum n 1) and enzym e solution (10 nM Ce iPGM-C-HiBiT dialyzed 1 Reagent 4 µLagainst Zn/Mn final assay concentration) in assay buffer + 0.05% IGEPAL; black/solid bottom , m edium bind, high base plates (Greiner), dispensed with BioRaptr 2 […]
Test com pounds: m acrocyclic peptides at 5 m M stock concentration in 16- pt, 1:3 titration […]
com pounds transferred to respective colum ns with Pintool
3 Incubation 20 m in Incubate enzym e + com pounds at am bient tem p for 20 m in, protected from light 4 Pre-Read Spark Measure fluorescence polarization of fluorescein (X480, M535) on Spark m ultimode m icroplate reader […]
dispensed with BioRaptr 2
6 Incubation 30 m in Am bient tem perature, protected from light
7 Detector Spark Measure fluorescence polarization of fluorescein (X480, M535) on Spark m ultimode m icroplate reader
Assay buffer: 30 m M Tris-HCl, pH 8.0; 5 m M MgSO4; 20 m M KCl; 0.05% IGEPAL. All solutions filtered through 0.22 1 µm syringe filter prior to dispense.
Measure fluorescence polarization of fluorescein on Spark m ultimode m icroplate reader with FP protocol: Excitation […]
4/7 20.0; G-Factor “Manual” = 1.000; Blank “Not Defined”.
Advanced Settings: Flashes = 30; Gain “Optim al”; Mirror “Autom atic”; Z-position [um ] “Manual” = 20000; Settle Tim e […]
Fluorescence polarization ligand solution: 30 m M Tris-HCl, pH 8.0; 5 m M MgSO4; 20 m M KCl; 0.05% IGEPAL; 15 […]
Solution filtered through 0.22
µm syringe filter prior to dispense.

[3] = E. coli Lig-N-HiBiT (0.5 nM), ligand 100 µM
[4] = C. elegans iPGM-C-HiBiT FP 10 nM, ligand […] FP

T1 sequence (P15042 2-671): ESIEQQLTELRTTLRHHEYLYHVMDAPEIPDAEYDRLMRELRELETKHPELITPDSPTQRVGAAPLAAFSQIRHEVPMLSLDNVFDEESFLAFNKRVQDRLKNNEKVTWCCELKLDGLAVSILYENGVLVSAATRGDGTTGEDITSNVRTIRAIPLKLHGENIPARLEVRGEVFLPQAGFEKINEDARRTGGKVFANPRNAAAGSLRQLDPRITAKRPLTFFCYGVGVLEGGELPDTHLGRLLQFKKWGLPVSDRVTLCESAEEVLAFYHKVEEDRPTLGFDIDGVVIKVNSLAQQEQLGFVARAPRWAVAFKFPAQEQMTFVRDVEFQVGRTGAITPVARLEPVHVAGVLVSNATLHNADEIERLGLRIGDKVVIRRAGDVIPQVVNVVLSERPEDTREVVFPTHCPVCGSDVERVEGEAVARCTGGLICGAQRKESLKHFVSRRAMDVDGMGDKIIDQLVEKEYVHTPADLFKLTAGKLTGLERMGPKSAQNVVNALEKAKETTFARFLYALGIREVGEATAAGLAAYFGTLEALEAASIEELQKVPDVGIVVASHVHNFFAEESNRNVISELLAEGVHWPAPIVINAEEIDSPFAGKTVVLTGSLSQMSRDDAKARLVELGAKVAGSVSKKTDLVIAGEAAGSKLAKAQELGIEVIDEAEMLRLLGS
Sequence of C. elegans iPGM-C-HiBiT (G5EFZ1 2-539): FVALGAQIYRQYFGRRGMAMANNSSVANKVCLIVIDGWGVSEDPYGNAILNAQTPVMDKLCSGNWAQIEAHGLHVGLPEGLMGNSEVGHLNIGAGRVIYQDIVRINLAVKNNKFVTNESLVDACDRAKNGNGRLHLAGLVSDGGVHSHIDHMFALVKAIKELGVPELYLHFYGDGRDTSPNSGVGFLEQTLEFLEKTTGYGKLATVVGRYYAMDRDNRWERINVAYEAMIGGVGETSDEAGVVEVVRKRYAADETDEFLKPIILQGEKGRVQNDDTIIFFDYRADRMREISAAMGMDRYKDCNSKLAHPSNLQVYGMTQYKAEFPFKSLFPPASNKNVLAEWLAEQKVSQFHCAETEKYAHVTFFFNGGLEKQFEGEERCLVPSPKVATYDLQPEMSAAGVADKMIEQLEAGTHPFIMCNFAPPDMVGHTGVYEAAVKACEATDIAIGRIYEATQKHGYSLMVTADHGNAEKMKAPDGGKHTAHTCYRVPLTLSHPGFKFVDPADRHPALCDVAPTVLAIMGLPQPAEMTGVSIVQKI

Nc1ncnc2c1ncn2[C@@H]1O[C@H](COP(=O)(O)OP(=O)(O)OP(=O)(O)O)[C@@H](O)[C@H]1O [ATP]
SDR assay data ([1]; M -2.85): 49.3 and 51.1 and 44.4
SDR assay data ([1]; M -3.15): 28.9 and 34.6 and 36.9
SDR assay data ([1]; M -3.45): 8.9 and 17.7 and 9.6
SDR assay response (in words) ([1]; E. coli Lig-N-HiBiT): weak though reproducible SDR output
SDR assay statistics Ave RLU [1, 3]: 315.5 RLU
SDR assay statistics S:B [1, 3]: 1.1
SDR assay statistics S:N [1, 3]: 0.6
SDR assay statistics Z’ [1, 3]: -6.013
max resp ([1]; E. coli Lig-N-HiBiT, maximum response): 48.3
SDR response ([1]; M -2.85): 49.3 and 51.1 and 44.4
SDR response ([1]; M -3.15): 28.9 and 34.6 and 36.9
SDR response ([1]; M -3.45): 8.9 and 17.7 and 9.6
SDR response ([1]; M -3.75): 3.6 and 9.8 and 15.1
SDR response ([1]; M -4.05): 1.5 and 7.7 and 15.7
SDR response ([1]; M -4.35): 0.051 and 11.3 and 4.7
SDR response ([1]; M -4.65): 0.8 and 3.9 and 8.7
SDR response ([1]; M -4.95): -0.949 and 1.5 and 6.8
SDR response ([1]; M -5.25): -4.0 and 5.1 and 9.7
SDR response ([1]; M -5.55): -8.9 and 4.7 and 2.7
SDR response ([1]; M -5.86): -3.0 and -2.8 and 4.9
SDR response ([1]; M -6.16): -9.9 and -0.326
SDR response ([1]; M -6.46): -6.9 and 3.7
SDR response ([1]; M -6.76): -8.7 and 1.0 and 4.2
EC50 [2]: ≥ 100000 nM

CC(C)C[C@H](NC(=O)[C@H](Cc1ccc(O)cc1)NC(=O)[C@@H]1CSCC(=O)N[C@H](Cc2ccc(O)cc2)C(=O)N[C@@H](CC(=O)O)C(=O)N[C@@H](Cc2ccc(O)cc2)C(=O)N2CCC[C@H]2C(=O)NCC(=O)N[C@@H](CC(=O)O)C(=O)N[C@@H](Cc2ccc(O)cc2)C(=O)N1)C(=O)N[C@@H](Cc1ccc(O)cc1)C(=O)NCC(=O)N[C@H](C(=O)N[C@@H](CS)C(=O)NCC(N)=O)[C@@H](C)O [Ce-2]
Kd (iPGM): 0.038 nM
IC50 (C. elegans iPGM-C-HiBiT): 34.7 nM
Standard assay statistics Ave RLU (C. elegans iPGM-C-HiBiT; [4]): 67.8 RLU
Standard assay statistics S:B (C. elegans iPGM-C-HiBiT; [4]): 1.4
Standard assay statistics S:N (C. elegans iPGM-C-HiBiT; [4]): -2.4
Standard assay statistics Z’ (C. elegans iPGM-C-HiBiT; [4]): -0.978
